Source: article PMC6891263, “Alkaloids with Nitric Oxide Inhibitory Activities from the Roots of Isatis tinctoria” (Molecules, 2019)

Key:
[1] = system: nitric oxide (NO) production, LPS-stimulated RAW264.7 macrophages; assay: Inhibitory assay of NO production (Griess reagent) in LPS-stimulated RAW264.7 macrophages; format: cell-based; settings: LPS 100 ng/mL for 24 h, 30 min pretreatment, mean ± SD (n = 3)
Protocol: NO is a messenger molecule that is widespread in cells and can affect a variety of physiological and pathological processes. The production of NO causes tissue damage and can trigger a variety of inflammatory diseases. LPS induces the release of NO from RAW264.7 cells by detecting the release of NO widely used to investigate the anti-inflammatory effects of the compounds [2, 10, 40]. […]
Inhibitory Assay of NO Production […]
(§1) Compounds 1-23 were dissolved in dimethyl sulfoxide (DMSO) and diluted with complete medium to 6 degrees of concentration […]
were maintained in Dulbecco’s modified Eagle’s medium (high-glucose condition) supplemented with 10% fetal calf serum, 100 U/mL penicillin, and 100 μg/mL streptomycin at 37 °C in 5% CO 2. RAW 264.7 cells were pretreated with each tested compound for 30 min, and then stimulated with lipopolysaccharide (LPS) (100 ng/mL) for 24 h. Aminoguanidine hydrochloride (100 μM) was used as a positive control. The NO production was measured using the Griess reagent. Briefly, the cell culture supernatant was reacted with equal volumes of Griess reagent in a 96-well plate for 10 min, and then the absorbance at 540 nm was measured by a plate reader. All experiments were performed in triplicate. All tested compounds were prepared as stock solutions with a concentration of 10 mM in DMSO. […]

[2] = system: RAW264.7 cells; assay: Cytotoxicity by Cell Counting Kit-8 (CCK-8); settings: CCK-8, tested at 25, 50 and 100 μM
Protocol: Inhibitory Assay of NO Production
Cytotoxicity was examined using the Cell Counting Kit-8 (CCK-8). RAW264.7 cells were taken from logarithmic growth stage and the cell density reached above 80%. And then, the cells were inoculated on 96-well cell culture plates at […], with 3 ×10^4 cells per well, cultured overnight at 37 °C with 5% CO 2. After 24h, the culture medium in the 96-well plate was discarded, the solution was changed and different concentrations (25 μM, 50 μM and 100 μM) of drugs were added. The absorbance at 450 nm was measured using a microplate reader (Thermo Fisher Scientific). Viability was defined as the ratio (expressed as a percentage) of absorbance values of treated cells to untreated cells.
as §1
were maintained in Dulbecco’s modified Eagle’s medium (high-glucose condition) supplemented with 10% fetal calf serum, 100 U/mL penicillin, and 100 μg/mL streptomycin at 37 °C in 5% CO 2. […]

[3] = Mus musculus, RAW264.7, RAW 264.7 cell line

| IC50 [1, 3] [µM] | Compound | IC50 ([1]; RAW 264.7 cell line) [µM] | Cytotoxicity [2] [µM] |
| --- | --- | --- | --- |
|  | 2-(1H-indol-2-yl)-4(3H)-quinolinone [Compound 8] | > 100 |  |
|  | Cl.N=C(N)NN [AG, aminoguanidine hydrochloride, reference compound] | 22.7 ± 0.4 | >100 |
| > 100 | O=c1cc(-c2ccc(O)cc2)c2cc(O)ccc2[nH]1 [Compound 1, Isatisindigoticanine E] |  | >100 |
| > 100 | COc1cccc2[nH]c(=O)cc(-c3cc4ccccc4[nH]3)c12 [Compound 2, Isatisindigoticanine F] |  | >100 |
| > 100 | O=c1c2ccccc2nc2n1CCC(c1c[nH]c3ccccc13)=C2 [Compound 3, Isatisindigoticanine G] |  | >100 |
| > 100 | O=c1cc(-c2ccc(O)cc2)c2ccccc2[nH]1 [Compound 4, 4-p-hydroxyphenyl-2(1H)-quinolinone] |  | >100 |
| > 100 | COc1ccc2nc(-c3cc4ccccc4[nH]3)[nH]c(=O)c2c1 [Compound 5, 2-(1H-indol-2-yl)-6-methoxy-4(3H)-quinazolinone] |  | >100 |
| > 100 | O=c1[nH]c(-c2ccccc2O)nc2ccccc12 [Compound 6, 2-(2-hydroxyphenyl)-4(3H)-quinazolinone] |  | >100 |
| > 100 | C=CCCc1nc2ccccc2c(=O)[nH]1 [Compound 7, 2-(but-3-en-1-yl)-4(3H)-quinazolinone] |  | >100 |
| > 100 | O=C(O)CCn1c(=O)[nH]c2ccccc2c1=O [Compound 10, 3-(2,4-dioxo-1,2-dihydroquinazolin-3(4H)-yl)propanoic acid] |  | >100 |
| > 100 | O=c1[nH]c2ccccc2c(=O)n1CCCCO [Compound 11, indiforine C] |  | >100 |
| > 100 | O=C(O)CCCn1c(=O)[nH]c2ccccc2c1=O [Compound 12, 4-(2,4-dioxo-1,2-dihydroquinazolin-3(4H)-yl)butanoic acid] |  | >100 |
| > 100 | COC(=O)CCCn1c(=O)[nH]c2ccccc2c1=O [Compound 13, methyl 4-(2,4-dioxo-1,2-dihydroquinazolin-3(4H)-yl)butanoate] |  | >100 |
| > 100 | O=c1c2ccccc2ncn1-c1ccccc1O [Compound 14, 3-(2-hydroxyphenyl)-4(3H)-quinazolinone] |  | >100 |
| 5 ± 1.3 | O=C(O)c1ccccc1-n1cnc2ccccc2c1=O [Compound 15, 3-(2-carboxyphenyl)-4(3H)-quinazolinone] |  | >100 |
| > 100 | Cc1nc(O)nc2ccccc12 [Compound 16, 4-methyl-1,2-dihydro-2-oxoquinazoline] |  | >100 |
|  | Cc1nc2ccccc2c(=O)[nH]1 [Compound 17, 2-methyl-4(3H)-quinazolinone] |  | >100 |
| > 100 | Cc1c(O)c2ccccc2[nH]c1=O [Compound 18, 4-hydroxy-3-methyl-2(1H)-quinolinone] |  | >100 |
| > 100 | Nc1cc(C(=O)O)c2ccccc2n1 [Compound 19, 2-amino-4-quinolinecarboxylic acid] |  | >100 |
|  | Oc1ccnc2ccccc12 [Compound 20, 4(1H)-quinolinone] |  | >100 |
| > 100 | O=C(O)c1cnc2ccccc2c1O [Compound 21, 4(1H)-quinolone-3-carboxylic acid] |  | >100 |
| > 100 | NC(=O)C(c1[nH]c2ccccc2c1OC1OC(CO)C(O)C(O)C1O)c1c[nH]c2ccccc12 (centres unmarked) [Compound 23, Isatindigoside D] |  | >100 |
